Active and inactive are the calls of the source. The rule behind the calls is not given here.
Columns and labels:
[1] = target: T1, Phosphatidylcholine:ceramide cholinephosphotransferase 2 (Homo sapiens, UniProt Q8NHU3); assay: Inhibition of SMS2 (unknown origin) over-expressed in H5 insect cell lysate using C6-NBD-Ceramide and DMPC as substrates preincubated for 30 mins followed by substrate addition and measured after 2 hrs by TLC or HPLC method; assay type: subcellular
T1 sequence (Q8NHU3 whole entry): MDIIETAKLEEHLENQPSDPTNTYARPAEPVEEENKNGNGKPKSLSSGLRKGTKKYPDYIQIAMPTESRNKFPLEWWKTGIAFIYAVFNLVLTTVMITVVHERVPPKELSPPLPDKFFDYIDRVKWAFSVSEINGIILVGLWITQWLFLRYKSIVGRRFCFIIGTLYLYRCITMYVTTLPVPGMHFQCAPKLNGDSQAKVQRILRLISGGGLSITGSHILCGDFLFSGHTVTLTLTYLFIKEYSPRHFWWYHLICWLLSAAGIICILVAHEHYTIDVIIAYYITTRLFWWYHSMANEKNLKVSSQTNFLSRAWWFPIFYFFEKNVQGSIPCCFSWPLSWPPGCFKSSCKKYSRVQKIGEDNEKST

[2] = target: T2, Phosphatidylcholine:ceramide cholinephosphotransferase 2 (Homo sapiens) (UniProt Q8NHU3); assay: Inhibition of SMS2 (unknown origin) over-expressed in H5 insect cell lysate at 100 uM using C6-NBD-Ceramide and DMPC as substrates preincubated for 30 mins followed by substrate addition and measured after 2 hrs by TLC or HPLC method relative to control; assay type: subcellular
T2 sequence (whole entry): T1 sequence (Q8NHU3 whole entry)

[3] = Inhibition of SMS (unknown origin); design: species or system Homo sapiens

| Compound | IC50 [1] [µM] | inhibition [2] | IC50 [3] [µM] |
| --- | --- | --- | --- |
| O=C(Nc1cccnc1)c1ccccc1OCc1cc(Cl)ccc1Cl | 0.99 |  |  |
| O=C(Nc1cccnc1)c1ccccc1OCc1ccccc1Cl | 1.1 |  |  |
| CCCCCCOc1ccc(Cl)cc1COc1ccccc1C(=O)Nc1cccnc1 | 0.52 |  |  |
| N#Cc1ccccc1COc1ccccc1C(=O)Nc1cccnc1 | 31.8 |  |  |
| Cc1cccc(C)c1COc1ccccc1C(=O)Nc1cccnc1 | 0.89 |  |  |
| O=C(Nc1cccnc1)c1ccccc1OCc1ccccc1OCCCCCl | 1.3 |  |  |
| O=C(Nc1cccnc1)c1ccccc1OCc1ccccc1OCCCCCCl | 0.67 |  |  |
| O=C(Nc1cccnc1)c1ccccc1OCc1c(Cl)cccc1Cl | 0.69 |  |  |
| N#Cc1cccc(COc2ccccc2C(=O)Nc2cccnc2)c1 | 60.7 |  |  |
| c1ccc(COc2ccccc2CNc2ccccc2)cc1 |  | inactive |  |
| O=C(NC1CCCCC1)c1ccccc1OCc1ccccc1 | 43.4 |  |  |
| O=C(NCc1ccccc1)c1ccccc1OCc1ccccc1 | 34.2 |  |  |
| Cc1ccc(F)cc1COc1ccccc1C(=O)Nc1cccnc1 | 0.74 |  |  |
| CCCCCCCOc1ccc(Cl)cc1COc1ccccc1C(=O)Nc1cccnc1 | 0.43 |  |  |
| S=C(S)O[C@@H]1C[C@H]2C[C@@H]1[C@H]1CCC[C@@H]21 |  |  | 177 to 600 |
| Cc1c(Cl)cccc1COc1ccccc1C(=O)Nc1cccnc1 | 3.8 |  |  |
| O=C(Nc1cccnc1)c1ccccc1OCc1ccccc1 | 3.2 |  |  |
| COc1ccc(Cl)cc1COc1ccccc1C(=O)Nc1cccnc1 | 0.67 |  |  |
| c1ccc(COc2ccccc2C(Nc2ccccc2)c2nnn[nH]2)cc1 (configuration not stated) |  | inactive |  |
| O=C(NCc1ccco1)c1ccccc1OCc1ccccc1 | 49 |  |  |
| COc1ccc(OC)c(COc2ccccc2C(=O)Nc2cccnc2)c1 | 2.8 |  |  |
| CC(C#N)(Nc1ccccc1)c1ccccc1OCc1ccccc1 (configuration not stated) | 34 | 58% |  |
| O=C(NC1CCCNC1)c1ccccc1OCc1ccccc1Cl (configuration not stated) | > 100 |  |  |
| O=C(Nc1ccccc1)c1ccccc1OCc1ccccc1 | 13.4 | 69% |  |
| O=C(Nc1cccnc1)c1ccccc1OCc1ccccc1C(F)(F)F | 2.1 |  |  |
| NC(=O)C(Nc1ccccc1)c1ccccc1OCc1ccccc1 (configuration not stated) |  | 39% |  |
| O=C(Nc1cccnc1)c1ccccc1OCc1ccccc1OCCCCCCCl | 0.47 |  |  |
| Cc1ccc(Cl)cc1COc1ccccc1C(=O)Nc1cccnc1 | 1.1 |  |  |
| N#CC(Nc1ccccc1)c1ccccc1OCc1ccccc1 (configuration not stated) |  | 75% |  |
| O=C(Nc1cccnc1)c1ccccc1OCc1cc(F)ccc1Cl | 0.74 |  |  |
